Results reported in patent US20250270648A1, “MOLECULAR SIGNATURE FOR ASSESSING THE RESPONSIVENESS OF CANCER TO MITOCHONDRIA-TARGETED ANTIOXIDANTS” (UNIVERSITÉ CATHOLIQUE DE LOUVAIN, priority 2021, published 2025).

Legend:
[1] = tested on: murine 4T1 breast cancer cells; assay: Cell viability, CellTiter-Glo; assay type: cell-based, mouse; conditions: increasing doses of DXR ±100 nM MitoQ, 48 h
Procedure: Cells were plated in 96-well plates and left to adhere for 16 hours. In order to avoid reaching full confluence at the endpoint, starting cell count was defined according to doubling time and the duration of the experiment. Following adhesion, cells were treated with the indicated compounds for 48 h, after which staining was done with a CellTiter-Glo Luminescent Cell Viability assay (Promega®, catalogue #G7570), according to supplier's instructions. This method is based on the quantification of intracellular ATP levels.

[2] = tested on: MDA-MB-231 primary tumors in mice; assay: RT-qPCR of resected primary tumors; assay type: in vivo, mouse; conditions: MitoQ 20 mg/kg daily oral
Procedure: Total mRNA from MDA-MB-231, SkBr3 and MDA-MB-436 cells treated ±MitoQ for 48 h was extracted using the NucleoSpin RNA Kit (Macherey-Nagel®). Total mRNA from primary tumors was extracted with Tri reagent (Molecular Research Center®, Cat #TR118). mRNAs were quantified by the Qubit BR dsRNA assay kit (Thermo Fisher Scientific®), and mRNA integrity was evaluated on an Agilent® 2100 Bioanalyzer with the RNA 6000 nano kit (Agilent®). It was reverse transcribed in complementary DNA using the High-Capacity cDNA Reverse Transcription Kit (Applied Biosystems®, cat #4368814) according to manufacturer's protocol. Complementary DNA (500 ng) was amplified by real time quantitative PCR (RT-qPCR) using the low ROX SYBR Master Mix dTTP Blue (Eurogentec®) and primers listed in Table 5 and Table 6 on a ViiA 7 Real-Time PCR System (Thermo Fisher Scientific®). Gene expression was normalized to β-actin gene expression.
(§1) For spontaneous metastasis assays using human breast cancer cells, MDA-MB-231, SkBr3 or MDA-MB-436 cells were prepared in medium containing 10% growth factor-reduced Matrigel (Corning®, cat #734-11-01). Five weeks-old female Rj:NMRI-Foxnlnu/nu mice (Janvier) were injected with 10^6 cancer cells in 100 μL of solution in the left second mammary fat pad. After tumor take (72 h), mice were daily treated ±20 mg/Kg MitoQ by oral gavage. Tumor size was measured once per week with an electronic caliper. Four weeks after treatment initiation, primary tumors were surgically removed and processed for RT-qPCR. Tumor recurrence was monitored until recurred tumors in the vehicle group reached about […], i.e. 24 days after surgery. At this time point, mice were sacrificed and their lungs collected and fixed in PFA 4% for immunocytochemistry.

4T1 cells = assay: Invasion, Matrigel-coated transwells; assay type: cell-based, mouse; conditions: 0.1 μg/mL DXR + 100 nM MitoQ
Procedure: Previous to migration and invasion assays, cells were pretreated with the indicated amounts of drugs for 16 h, and left to recover for 6 h in full culture medium. Migration assays were performed in a NeuroProbe® standard 48-well chemotaxis chamber according to manufacturer's instructions. Briefly, the bottom chamber was filled with DMEM containing 0.5% serum as a chemo-attractant. Fifty thousand cells were seeded in the upper chamber in the same medium but without serum ±MitoQ where indicated, and allowed to migrate overnight through an 8-μm pore-size polycarbonate membrane. A similar stimulation protocol was used for invasion assays, with the difference of using Matrigel-coated transwells (Corning®). With MCF7 cells, membranes were previously incubated for 30 min with a solution of Vitronectin 10 μg/ml (Sigma-Aldrich®, #SRP3186). Migrated/invaded cells were fixed and stained with 100 μl of a 0.23% crystal violet solution (Sigma-Aldrich®, #C0775) for 10 min before counting on a SpectraMax™ i3 spectrophotometer equipped with a MiniMax imaging cytometer, using the SoftMax Pro software. Data were normalized to vehicle-treated cells (control).

[3] = tested on: MDA-MB-231 human triple-negative breast cancer; assay: Spontaneous metastasis and recurrence, orthotopic MDA-MB-231 model; assay type: in vivo, mouse; conditions: MitoQ 20 mg/kg daily oral
Procedure: as §1
Collected lungs were processed for immunohistochemistry as previously shown. They were stained for Cytokeratin 19 (CK19) using a primary rabbit recombinant anti-CK19 antibody (Abcam®, cat #ab76539) and a secondary Envision anti-rabbit antibody coupled to HRP (Dako®, cat #K4003), and counter-stained with H&E. Images of whole lung slides were acquired on a SCN400 Slide Scanner (Leica®) and analyzed with the QuPath Software (0.1.2). Quantification was performed according to Chang and Erler (Adv Exp Med Biol, 2016; 899, 245-251), and the number of lung metastases was proportional to the positive areas of CK19 staining.

MDA-MB-231 cells = assay: Cell migration, scratch test; assay type: cell-based, human; conditions: MitoQ 100 nM, 48 h
Procedure: (§2) A scratch test was performed on cells treated ±MitoQ for 48 h (Tamura et al.; Science, 1998; 280, 1614-1617). For each condition and each time point, pictures were taken in the same field, and the distance between the wound edges was analyzed using the Image J software (Java®). The percentage of scratch closure was calculated in respect to wounded area at 0 h.

MDA-MB-436 cells = assay: Cell migration, scratch test; assay type: cell-based, human; conditions: MitoQ 100 nM, 48 h
Procedure: as §2

SkBr3 cells = assay: Cell migration, scratch test; assay type: cell-based, human; conditions: MitoQ 100 nM, 48 h
Procedure: as §2

**Q.** Which DXR-induced cell killing [1] does the source give for `COC1=C(OC)C(=O)C(CCCCCCCCCC[P+](c2ccccc2)(c2ccccc2)c2ccccc2)=C(C)C1=O` [MitoQ] here?
**A.** Its DXR-induced cell killing is “did not interfere”.

**Q.** And the “tumor samples in which PSAT1 expression was induced” value [2]?
**A.** Its value is 100%.

**Q.** What about the “PHGDH-1 transcript upregulated in response to MitoQ: Validated in vivo” value ([2]; tumors resected day +32) of the same molecule?
**A.** The value was “+ (Repressed or induced by ≥2-fold with P < 0.01 and MDA-MB-231 primary tumors in mice.)”.

**Q.** And the “PSAT1 transcript upregulated in response to MitoQ: Validated in vivo” value ([2]; tumors resected day +32)?
**A.** Its value is “+ (Repressed or induced by ≥2-fold with P < 0.01 and MDA-MB-231 primary tumors in mice.)”.

**Q.** What about the “SERPINE1 transcript upregulated in response to MitoQ: Validated in vivo” value ([2]; tumors resected day +32) of the same molecule?
**A.** The value was “+ (Repressed or induced by ≥2-fold with P < 0.01 and MDA-MB-231 primary tumors in mice.)”.

**Q.** And the “SLC7A11 transcript upregulated in response to MitoQ: Validated in vivo” value ([2]; tumors resected day +32)?
**A.** The value was “+ (Repressed or induced by ≥2-fold with P < 0.01 and MDA-MB-231 primary tumors in mice.)”.

**Q.** And the “TXNRD1 transcript upregulated in response to MitoQ: Validated in vivo” value ([2]; tumors resected day +32)?
**A.** Its value is “+ (Repressed or induced by ≥2-fold with P < 0.01 and MDA-MB-231 primary tumors in mice.)”.

**Q.** And the fold induction at 20 mg/kg ([2]; Mus musculus, MDA-MB-231, P<0.01, read-out: fold induction of PHGDH-1, SLC7A11, SERPINE1, TXNRD1 and PSAT1 (each independently))?
**A.** The fold induction at 20 mg/kg was at least 2.

**Q.** And the DXR-stimulated cell invasion (4T1 cells)?
**A.** Its DXR-stimulated cell invasion is “inhibited”.

**Q.** And the primary tumor growth ([3]; P=0.3150)?
**A.** Its primary tumor growth is “not significantly affected”.

**Q.** What about the recurrence-free survival ([3]; after surgery) of the same molecule?
**A.** The recurrence-free survival was “significantly improved”.

**Q.** And the “mice with no metastasis” value ([3]; day +56, 9.5% in the control group)?
**A.** The value was 75.0%.

**Q.** What about the “metastatic dissemination (lungs)” value ([3]; sacrifice day +56) of the same molecule?
**A.** Its value is “highly significantly prevented”.

**Q.** And the “animals in which primary tumors relapsed after surgery” value ([3]; surgery day +32, 100% in the control group)?
**A.** Its value is 25%.

**Q.** And the migratory capability (MDA-MB-231 cells)?
**A.** Its migratory capability is “highly significantly reduced”.

**Q.** And the cell migration (MDA-MB-436 cells)?
**A.** The cell migration was “inhibited”.

**Q.** And the migratory capability (SkBr3 cells)?
**A.** Its migratory capability is “highly significantly reduced”.
